Source: patent US8895585B2, “Nicotinamide derivative or salt thereof” (FUJIFILM Corporation, priority 2010, dated 2014)
Read-outs that look alike come from different tables or passages of the source.

Key:
[1] = target: T1, glutathione S-transferase (GST)-fused full-length human Syk protein (Homo sapiens, UniProt P43405); experiment: Syk enzyme assay; format: biochemical; settings: Syk enzyme assay, Test Example 1; read-out: IC50 of Syk-inhibitory activity
T1 construct: (GST)-fused full-length human Syk protein; GST (glutathione S-transferase); purchased Carna Biosciences
How it was run: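 GST-tagged full-length human Syk (baculovirus) preincubated with compound 15 min at room temperature (pH 7.0, 10 mM MgCl2), then reacted 40 min with 0.4 μM biotinylated peptide substrate and 27 μM ATP (final). Phosphorylation read by HTRF (615/665 nm) after EDTA stop; IC50 reported.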

[2] = test system: THP-1 cells; experiment: TNFα generation assay; format: cell-based, human
Protocol: THP-1 cells (2×10^5 cells/ml), which were human monocytoid cells, were cultured in the presence of 10 ng/ml IFN-γ (Roche) for 2 days, so that the cells were induced to differentiate into macrophage-like cells. The differentiation-induced THP-1 cells were recovered, and the cells (1×10^6 cell/ml) were then allowed to react with a predetermined concentration of test compound at room temperature for 30 minutes. On the other hand, 100 μl of human IgG (10 μg/ml, SIGMA-ALDRICH) diluted with PBS was added to a 96-well plate, and it was then incubated at room temperature overnight. Thereafter, the resultant was washed with PBS twice to produce a human IgG-coated plate. Subsequently, a cell solution that contained a compound was inoculated on the human IgG-coated plate (5×10^4 cells/well), and it was then cultured for 7 hours. Thereafter, the cultured solution was recovered, and the amount of TNFα secreted into the culture solution was then measured by the ELISA method (Roche/R & D Systems) or the AlphaLISA method (PerkinElmer).

[3] = THP-1 cells, Table 22, read-out: IC50 in TNFα generation assay
[4] = Homo sapiens, THP-1, THP-1 cells, Table 22, read-out: IC50 in TNFα generation assay
[5] = Homo sapiens, THP-1, 7 h, IFN-γ-differentiated THP-1 cells on human IgG-coated plate, cultured 7 hours, read-out: TNFα generation inhibitory activity (IC50)

| Molecule | IC50 [1] [nM] | IC50 [2, 4] [nM] | other results |
| --- | --- | --- | --- |
| 6-(((2R,3S)-3-aminobutan-2-yl)amino)-2- (3,5-dimethoxyphenyl)amino)-5- fluoronicotinamide 6-(((2S,3R)-3-aminobutan-2-yl)amino)-2- (3,5-dimethoxyphenyl)amino)-5- fluoronicotinamide [Example 006-107] | < 10 |  | IC50 [2, 3]: < 65 nM |
| 6-(((2R,3S)-3-aminobutan-2-yl)amino)-2- ((5,6-dimethylpyridin-3-yl)amino)-5- fluoronicotinamide 6-(((2S,3R)-3-aminobutan-2-yl)amino)-2- (5,6-dimethylpyridin-3-yl)amino)-5- fluoronicotinamide [Example 006-194] | 10 to 50 |  | IC50 [2, 3]: 65 to 130 nM |
| C[C@H](N)[C@@H](C)Nc1nc(Nc2ccc3c(cnn3C)c2)c(C(N)=O)cc1F (racemic) [Example 006-109, 6-(((2R,3S)-3-aminobutan-2-yl)amino)-5-fluoro-2-((1-methyl-1H-indazol-5-yl)amino)nicotinamide 6-(((2S,3R)-3-aminobutan-2-yl)amino)-5-fluoro-2-((1-methyl-1H-indazol-5-yl)amino)nicotinamide] | < 10 | 65 to 130 |  |
| C[C@H](N)[C@@H](C)Nc1nc(Nc2cccc(-n3nccn3)c2)c(C(N)=O)cc1F (racemic) [Example 006-111, 2-((3-(2H-1,2,3-triazol-2-yl)phenyl)amino)-6-(((2R,3S)-3-aminobutan-2-yl)amino)-5-fluoronicotinamide 2-((3-(2H-1,2,3-triazol-2-yl)phenyl)amino)-6-(((2S,3R)-3-aminobutan-2-yl)amino)-5-fluoronicotinamide] | < 10 | 65 to 130 |  |
| COc1cc(Nc2nc(N[C@H](C)[C@H](C)N)c(F)cc2C(N)=O)cc(OC)n1 (racemic) [Example 006-112, 6-(((2R,3S)-3-aminobutan-2-yl)amino)-2-((2,6-dimethoxypyridin-4-yl)amino)-5-fluoronicotinamide 6-(((2S,3R)-3-aminobutan-2-yl)amino)-2-((2,6-dimethoxypyridin-4-yl)amino)-5-fluoronicotinamide] | < 10 | 65 to 130 |  |
| C[C@H](N)[C@@H](C)Nc1nc(Nc2cccc(-n3ccnn3)c2)c(C(N)=O)cc1F (racemic) [Example 006-121, 2-((3-(1H-1,2,3-triazol-1-yl)phenyl)amino)-6-(((2R,3S)-3-aminobutan-2-yl)amino)-5-fluoronicotinamide 2-((3-(1H-1,2,3-triazol-1-yl)phenyl)amino)-6-(((2S,3R)-3-aminobutan-2-yl)amino)-5-fluoronicotinamide] | < 10 | 130 to 200 |  |
| COc1ccc2cc(Nc3nc(N[C@H](C)[C@H](C)N)c(F)cc3C(N)=O)cnc2c1 (racemic) [Example 006-174, 6-(((2R,3S)-3-aminobutan-2-yl)amino)-5-fluoro-2-((7-methoxyquinolin-3-yl)amino)nicotinamide 6-(((2S,3R)-3-aminobutan-2-yl)amino)-5-fluoro-2-((7-methoxyquinolin-3-yl)amino)nicotinamide] | < 10 | < 65 |  |
| C[C@H](N)[C@@H](C)Nc1nc(Nc2ccc3cccnc3c2)c(C(N)=O)cc1F (racemic) [Example 006-182, 6-(((2R,3S)-3-aminobutan-2-yl)amino)-5-fluoro-2-((quinolin-7-yl)amino)nicotinamide 6-(((2S,3R)-3-aminobutan-2-yl)amino)-5-fluoro-2-((quinolin-7-yl)amino)nicotinamide] | < 10 | 130 to 200 |  |
| CCn1ncc2cc(Nc3nc(N[C@H](C)[C@H](C)N)c(F)cc3C(N)=O)ccc21 (racemic) [Example 006-184, 6-(((2R,3S)-3-aminobutan-2-yl)amino)-2-((1-ethyl-1H-indazol-5-yl)amino)-5-fluoronicotinamide 6-(((2S,3R)-3-aminobutan-2-yl)amino)-2-((1-ethyl-1H-indazol-5-yl)amino)-5-fluoronicotinamide] | < 10 | 65 to 130 |  |
| Cc1nc2ccc(Nc3nc(N[C@H](C)[C@H](C)N)c(F)cc3C(N)=O)cc2nc1C (racemic) [Example 006-185, 6-(((2R,3S)-3-aminobutan-2-yl)amino)-2-((2,3-dimethylquinoxalin-6-yl)amino)-5-fluoronicotinamide 6-(((2S,3R)-3-aminobutan-2-yl)amino)-2-((2,3-dimethylquinoxalin-6-yl)amino)-5-fluoronicotinamide] | 10 to 50 | 65 to 130 |  |
| CCCOc1cc(Nc2nc(N[C@H](C)[C@H](C)N)c(F)cc2C(N)=O)ccn1 (racemic) [Example 006-187, 6-(((2R,3S)-3-aminobutan-2-yl)amino)-5-fluoro-2-((2-propoxypyridin-4-yl)amino)nicotinamide 6-(((2S,3R)-3-aminobutan-2-yl)amino)-5-fluoro-2-((2-propoxypyridin-4-yl)amino)nicotinamide] | < 10 | 130 to 200 |  |
| C[C@H](N)[C@@H](C)Nc1nc(Nc2ccc3scnc3c2)c(C(N)=O)cc1F (racemic) [Example 006-188, 6-(((2R,3S)-3-aminobutan-2-yl)amino)-2-(benzo[d]thiazol-5-ylamino)-5-fluoronicotinamide 6-(((2S,3R)-3-aminobutan-2-yl)amino)-2-(benzo[d]thiazol-5-ylamino)-5-fluoronicotinamide] | < 10 | 65 to 130 |  |
| NC(=O)c1cc(F)c(N[C@@H]2CCCC[C@@H]2N)nc1Nc1ccnc2c1ccn2CCN1CCCC1 [Example 004-023] |  | 65 to 130 |  |
| NCCNc1nc(Nc2ccc3ncsc3c2)c(C(N)=O)cc1F [Example 6-44, 6-(2-aminoethylamino)-2-((benzo[d]thiazol-6-yl)amino)-5-fluoro-nicotinamide] |  |  | IC50 [2, 5]: ≤ 200 nM |
| CC(C)C[C@H](CN)Nc1nc(Nc2ccc3ncccc3c2)c(C(N)=O)cc1F [Example 006-117, (R)-6-((1-amino-4-methylpentan-2-yl)amino)-5-fluoro-2-((quinolin-6-yl)amino)nicotinamide] |  | < 65 |  |
| NCCNc1nc(Nc2cnc3ccccc3c2)c(C(N)=O)cc1F [Example 8-11, 6-(2-aminoethylamino)-5-fluoro-2-(quinolin-3-ylamino)nicotinamide] |  |  | IC50 ([2]; Homo sapiens, THP-1, 7 h, read-out: TNFα generation inhibitory activity (IC50)): ≤ 200 nM |
| CC[C@@H](Nc1nc(Nc2ccc3ncccc3c2)c(C(N)=O)cc1F)C(N)=O [Example 12-31, 6-(((2R)-1-amino-1-oxobutan-2-yl)amino)-5-fluoro-2-(quinolin-6-ylamino)nicotinamide] |  |  | IC50 [2, 5]: ≤ 200 nM |
| NC(=O)c1cc(F)c(NC[C@@H](N)c2ccccc2)nc1Nc1ccc2ncccc2c1 [Example 14-5, 6-(((2S)-2-amino-2-phenylethyl)amino)-5-fluoro-2-(quinolin-6-ylamino)nicotinamide] |  |  | IC50 [2, 5]: ≤ 200 nM |
| COC[C@H](N)CNc1nc(Nc2ccc3ncccc3c2)c(C(N)=O)cc1F [Example 14-6, 6-(((2R)-2-amino-3-methoxypropyl)amino)-5-fluoro-2-(quinolin-6-ylamino)nicotinamide] |  |  | IC50 [2, 5]: ≤ 200 nM |
| CC(C)C[C@H](N)CNc1nc(Nc2ccc3ncccc3c2)c(C(N)=O)cc1F [Example 14-10, 6-(((2S)-2-amino-4-methylpentyl)amino)-5-fluoro-2-(quinolin-6-ylamino)nicotinamide] |  |  | IC50 [2, 5]: ≤ 200 nM |
| COc1cc(Nc2nc(N[C@@H]3CCCC[C@@H]3N)c(F)cc2C(N)=O)cc(OC)c1 [Example 22-5, 6-((1R,2S)-2-aminocyclohexylamino)-2-(3,5-dimethoxyphenylamino)-5-fluoronicotinamide] |  |  | IC50 [2, 5]: ≤ 200 nM |
